Results from patent US10851102B2, “Imidazole and triazole containing bicyclic compounds as JAK inhibitors” (THERAVANCE BIOPHARMA R&D IP, LLC, priority 2019, dated 2020).

How the values were obtained:
JAK1 = JAK1 (Homo sapiens (Human), UniProt P23458); assay: Biochemical JAK and Tyk2 kinase assays (LanthaScreen): JAK1; settings: 1 h pre-incubation, ATP at Km; pIC50 converted to pKi by Cheng-Prusoff
Procedure: (§1) Assay 1: Biochemical JAK and Tyk2 Kinase Assays
(§2) A panel of four LanthaScreen JAK biochemical assays (JAK1, 2, 3 and Tyk2) were carried in a common kinase reaction buffer (50 mM HEPES, pH 7.5, 0.01% Brij-35, 10 mM MgCl2, and 1 mM EGTA). Recombinant GST-tagged JAK enzymes and a GFP-tagged STAT1 peptide substrate were obtained from Life Technologies.
(§3) Serially or discretely diluted compounds were pre-incubated with each of the four JAK enzymes and the substrate in white 384-well microplates (Corning) at ambient temperature for 1 h. ATP was subsequently added to initiate the kinase reactions in 10 μL total volume, with 1% DMSO. […] Kinase reactions were allowed to proceed for 1 hour at ambient temperature before a 10 μL preparation of EDTA (10 mM final concentration) and Tb-anti-pSTAT1 (pTyr701) antibody (Life Technologies, 2 nM final concentration) in TR-FRET dilution buffer (Life Technologies) was added. The plates were allowed to incubate at ambient temperature for 1 h before being read on the EnVision reader (Perkin Elmer). Emission ratio signals (520 nm/495 nm) were recorded and utilized to calculate the percent inhibition values based on DMSO and background controls.
(§4) For dose-response analysis, percent inhibition data were plotted vs. compound concentrations, and IC50 values were determined from a 4-parameter robust fit model with the Prism software (GraphPad Software). Results were expressed as pIC50 (negative logarithm of IC50) and subsequently converted to pKi (negative logarithm of dissociation constant, Ki) using the Cheng-Prusoff equation.

JAK2 = JAK2 (Homo sapiens (Human), UniProt O60674); assay: Biochemical JAK and Tyk2 kinase assays (LanthaScreen): JAK2; settings: 1 h pre-incubation, ATP at Km, pIC50 converted to pKi by Cheng-Prusoff
Procedure: as §1, §2, §3, §4

JAK3 = JAK3 (Homo sapiens (Human), UniProt P52333); assay: Biochemical JAK and Tyk2 kinase assays (LanthaScreen): JAK3; settings: for Ki / JAK 3 (pKi): 1 h pre-incubation, ATP at Km, pIC50 converted to pKi by Cheng-Prusoff; for Ki: read-out: JAK 3 (pKi) (converted); for JAK3 (pKi)-JAK1 (pKi): difference of pKi values, selectivity JAK3 over JAK1
Procedure: as §1, §2, §3, §4

Tyk2 = Tyk2 (Homo sapiens (Human), UniProt P29597); assay: Biochemical JAK and Tyk2 kinase assays (LanthaScreen): Tyk2; settings: 1 h pre-incubation, ATP at Km; pIC50 converted to pKi by Cheng-Prusoff
Procedure: as §1, §2, §3, §4

[1] = system: IL-2 stimulated pSTAT5 in Tall-1 T cells (JAK3); assay: Cellular JAK3 potency assay: inhibition of IL-2 stimulated pSTAT5 in Tall-1 T cells; format: cell-based; settings: IL-2 300 ng/ml, pSTAT5 AlphaLisa, Tall-1 human T cell line; read-out: Tall-1 (pIC50) (converted)
Procedure: Assay 2: Cellular JAK3 Potency Assay: Inhibition of IL-2 Stimulated pSTAT5 in Tall-1 T Cells
The potency of test compounds for inhibition of interleukin-2 (IL-2) stimulated STATS phosphorylation was measured in the Tall-1 human T cell line (DSMZ) using AlphaLisa. Because IL-2 signals through JAK3, this assay provides a measure of JAK3 cellular potency.
(§5) Phosphorylated STATS was measured via the AlphaLISA SureFire Ultra pSTAT5 (Tyr694/699) kit (PerkinElmer).
Human T cells from the Tall-1 cell line were cultured in a 37° C., 5% CO2 humidified incubator in RPMI (Life Technologies) supplemented with 15% Heat Inactivated Fetal Bovine Serum (FBS, Life Technologies), 2 mM Glutamax (Life Technologies), 25 mM HEPES (Life Technologies) and 1× Pen/Strep (Life Technologies). Compounds were serially diluted in DMSO and dispensed acoustically to empty wells. Assay media (phenol red-free DMEM (Life Technologies) supplemented with 10% FBS (ATCC)) was dispensed (4 μL/well) and plates shaken at 900 rpm for 10 mins. Cells were seeded at 45,000 cells/well in assay media (4 μL/well), and incubated at 37° C., 5% CO2 for 1 hour, followed by the addition of IL-2 (R&D Systems; final concentration 300 ng/ml) in pre-warmed assay media ([…]) for 30 minutes. After cytokine stimulation, cells were lysed with 6 ul of 3× AlphaLisa Lysis Buffer (PerkinElmer) containing 1× PhosStop and Complete tablets (Roche). The lysate was shaken at 900 rpm for 10 minutes at room temperature (RT). Phosphorylated STATS was measured via the pSTAT5 AlphaLisa kit (PerkinElmer). Freshly prepared acceptor bead mixture was dispensed onto lysate (5 μL) under green filtered <100 lux light. Plates were shaken at 900 rpm for 2 mins, briefly spun down, and incubated for 2 hrs at RT in the dark. Donor beads were dispensed (5 μL) under green filtered <100 lux light. Plates were shaken at 900 rpm for 2 minutes, briefly spun down, and incubated overnight at RT in the dark. Luminescence was measured with excitation at 689 nm and emission at 570 nm using an EnVision plate reader (PerkinElmer) under green filtered <100 lux light.
To determine the inhibitory potency of test compounds in response to IL-2, the average emission intensity of beads bound to pSTAT5 was measured in a human T cell line. IC50 values were determined from analysis of the inhibition curves of signal intensity versus compound concentration. Data are expressed as pIC50 (negative decadic logarithm IC50) values (mean±standard deviation).

Caco-2 cell monolayers = assay: Caco-2 permeation assay; format: in vitro ADME, human; settings: 5 μM, A to B, + Verapamil 25 μM, 120 minutes
From the text: Assay 5: Caco-2 Permeation Assay

[2] = system: IL-2 stimulated pSTAT5 in CD4+ T cells isolated from murine splenocytes (JAK3); assay: Inhibition of IL-2 stimulated pSTAT5 in CD4+ T cells isolated from murine splenocytes; format: cell-based; settings: Mus musculus, IL-2 7 ng/ml, read-out: pIC50, inhibition of IL-2 stimulated pSTAT5 (converted)
Procedure: Assay 3: Inhibition of IL-2 Stimulated pSTAT5 in CD4+ T Cells Isolated from Murine Splenocytes
The potency of test compounds for inhibition of interleukin-2 (IL-2) stimulated STATS phosphorylation was measured in the CD4+ T cells isolated from murine splenocytes using AlphaLisa. Because IL-2 signals through JAK3, this assay provides a measure of JAK3 cellular potency in mouse.
as §5
CD4+ T cells were isolated from murine splenocytes via negative selection on a magnetic column (Miltnyi Biotec) and re-suspended in assay media (phenol red-free DMEM (Life Technologies) supplemented with 10% FBS (ATCC)). Cells were seeded at 50,000 cells/well in assay media (2 μL/well). Compounds were serially diluted in DMSO and diluted to 2× final concentration in assay media. Compound was added (4 μl/well) and the cells incubated at 37° C., 5% CO2 for 1 hour, followed by the addition of IL-2 (R&D Systems; final concentration 7 ng/ml) in pre-warmed assay media (2 μL) for 30 minutes. After cytokine stimulation, cells were lysed with 2 μl of 5× AlphaLisa Lysis Buffer (PerkinElmer). The lysate was shaken at 900 rpm for 10 minutes at room temperature (RT). Phosphorylated STATS was measured via the pSTAT5 AlphaLisa kit (PerkinElmer). Freshly prepared acceptor bead mixture was dispensed onto lysate (5 ul) under green filtered <100 lux light. Plates were shaken at 900 rpm for 2 mins, briefly spun down, and incubated for 2 hrs at RT in the dark. Donor beads were dispensed (5 μl) under green filtered <100 lux light. Plates were shaken at 900 rpm for 2 mins, briefly spun down, and incubated overnight at RT in the dark. Luminescence was measured with excitation at 689 nm and emission at 570 nm using an EnVision plate reader (PerkinElmer) under green filtered <100 lux light.
To determine the inhibitory potency of test compounds in response to IL-2, the average emission intensity of beads bound to pSTATS was measured in primary CD4+ T cells isolated from murine splenocytes. IC50 values were determined from analysis of the inhibition curves of signal intensity vs compound concentration. Data are expressed as pIC50 (negative decadic logarithm IC50) values (mean±standard deviation).

Chain of Tyk2 (P29597 whole entry): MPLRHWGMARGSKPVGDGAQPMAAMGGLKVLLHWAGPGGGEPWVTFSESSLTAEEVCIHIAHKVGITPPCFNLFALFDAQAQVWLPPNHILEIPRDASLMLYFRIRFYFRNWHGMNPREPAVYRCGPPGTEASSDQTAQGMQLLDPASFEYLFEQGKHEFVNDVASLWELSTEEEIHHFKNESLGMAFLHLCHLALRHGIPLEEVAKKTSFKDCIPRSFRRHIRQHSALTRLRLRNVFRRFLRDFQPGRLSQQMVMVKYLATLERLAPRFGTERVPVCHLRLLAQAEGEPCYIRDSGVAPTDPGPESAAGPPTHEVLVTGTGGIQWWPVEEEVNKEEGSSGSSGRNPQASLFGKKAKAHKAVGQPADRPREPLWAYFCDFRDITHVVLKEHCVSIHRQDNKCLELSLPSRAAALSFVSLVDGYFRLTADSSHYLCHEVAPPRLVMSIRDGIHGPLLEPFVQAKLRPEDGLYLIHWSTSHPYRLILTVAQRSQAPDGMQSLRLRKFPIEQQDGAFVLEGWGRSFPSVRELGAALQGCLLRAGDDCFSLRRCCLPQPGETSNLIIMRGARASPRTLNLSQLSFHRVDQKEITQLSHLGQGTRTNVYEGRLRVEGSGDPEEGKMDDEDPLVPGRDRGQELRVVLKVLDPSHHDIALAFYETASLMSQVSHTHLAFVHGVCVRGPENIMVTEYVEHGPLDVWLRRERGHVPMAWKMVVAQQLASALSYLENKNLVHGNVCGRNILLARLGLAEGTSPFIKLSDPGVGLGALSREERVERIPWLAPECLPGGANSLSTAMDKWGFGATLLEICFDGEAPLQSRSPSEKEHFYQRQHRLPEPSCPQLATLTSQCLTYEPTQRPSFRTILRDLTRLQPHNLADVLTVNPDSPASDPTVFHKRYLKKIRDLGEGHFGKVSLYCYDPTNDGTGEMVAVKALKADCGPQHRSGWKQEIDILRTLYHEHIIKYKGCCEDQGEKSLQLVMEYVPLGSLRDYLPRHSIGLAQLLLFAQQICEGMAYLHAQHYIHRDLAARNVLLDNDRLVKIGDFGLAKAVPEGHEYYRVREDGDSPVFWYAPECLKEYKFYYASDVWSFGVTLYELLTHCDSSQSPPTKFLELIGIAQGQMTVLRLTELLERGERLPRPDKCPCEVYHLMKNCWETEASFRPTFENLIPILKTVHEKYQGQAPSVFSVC
Chain of JAK2 (O60674 whole entry): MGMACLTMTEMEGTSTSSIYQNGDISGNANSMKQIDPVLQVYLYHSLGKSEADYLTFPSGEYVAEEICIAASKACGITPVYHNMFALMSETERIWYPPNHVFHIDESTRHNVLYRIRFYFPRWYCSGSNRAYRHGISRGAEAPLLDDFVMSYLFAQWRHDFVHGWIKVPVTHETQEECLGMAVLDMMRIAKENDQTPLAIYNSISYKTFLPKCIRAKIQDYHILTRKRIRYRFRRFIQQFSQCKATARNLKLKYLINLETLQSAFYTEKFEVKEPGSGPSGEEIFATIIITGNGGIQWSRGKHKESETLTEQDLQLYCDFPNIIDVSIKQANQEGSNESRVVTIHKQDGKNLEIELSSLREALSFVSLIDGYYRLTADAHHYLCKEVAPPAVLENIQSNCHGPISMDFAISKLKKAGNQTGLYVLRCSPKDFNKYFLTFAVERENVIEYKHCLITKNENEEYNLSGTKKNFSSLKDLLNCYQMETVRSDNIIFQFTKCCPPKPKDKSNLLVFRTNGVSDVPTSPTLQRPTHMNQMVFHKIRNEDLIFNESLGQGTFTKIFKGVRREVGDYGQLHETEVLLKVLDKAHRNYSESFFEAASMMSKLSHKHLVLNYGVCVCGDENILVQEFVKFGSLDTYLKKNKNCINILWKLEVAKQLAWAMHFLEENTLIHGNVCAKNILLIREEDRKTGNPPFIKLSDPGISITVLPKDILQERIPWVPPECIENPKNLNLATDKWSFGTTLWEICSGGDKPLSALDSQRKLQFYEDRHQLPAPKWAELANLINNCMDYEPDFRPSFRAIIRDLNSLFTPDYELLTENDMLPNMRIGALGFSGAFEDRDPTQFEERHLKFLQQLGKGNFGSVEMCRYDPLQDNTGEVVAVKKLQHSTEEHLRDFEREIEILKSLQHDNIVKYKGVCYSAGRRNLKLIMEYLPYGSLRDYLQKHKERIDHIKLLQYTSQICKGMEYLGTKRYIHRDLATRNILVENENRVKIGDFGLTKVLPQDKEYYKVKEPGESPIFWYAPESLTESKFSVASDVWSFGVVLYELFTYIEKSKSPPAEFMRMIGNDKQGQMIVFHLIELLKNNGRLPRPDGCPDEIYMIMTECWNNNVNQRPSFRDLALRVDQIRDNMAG
Chain of JAK1 (P23458 whole entry): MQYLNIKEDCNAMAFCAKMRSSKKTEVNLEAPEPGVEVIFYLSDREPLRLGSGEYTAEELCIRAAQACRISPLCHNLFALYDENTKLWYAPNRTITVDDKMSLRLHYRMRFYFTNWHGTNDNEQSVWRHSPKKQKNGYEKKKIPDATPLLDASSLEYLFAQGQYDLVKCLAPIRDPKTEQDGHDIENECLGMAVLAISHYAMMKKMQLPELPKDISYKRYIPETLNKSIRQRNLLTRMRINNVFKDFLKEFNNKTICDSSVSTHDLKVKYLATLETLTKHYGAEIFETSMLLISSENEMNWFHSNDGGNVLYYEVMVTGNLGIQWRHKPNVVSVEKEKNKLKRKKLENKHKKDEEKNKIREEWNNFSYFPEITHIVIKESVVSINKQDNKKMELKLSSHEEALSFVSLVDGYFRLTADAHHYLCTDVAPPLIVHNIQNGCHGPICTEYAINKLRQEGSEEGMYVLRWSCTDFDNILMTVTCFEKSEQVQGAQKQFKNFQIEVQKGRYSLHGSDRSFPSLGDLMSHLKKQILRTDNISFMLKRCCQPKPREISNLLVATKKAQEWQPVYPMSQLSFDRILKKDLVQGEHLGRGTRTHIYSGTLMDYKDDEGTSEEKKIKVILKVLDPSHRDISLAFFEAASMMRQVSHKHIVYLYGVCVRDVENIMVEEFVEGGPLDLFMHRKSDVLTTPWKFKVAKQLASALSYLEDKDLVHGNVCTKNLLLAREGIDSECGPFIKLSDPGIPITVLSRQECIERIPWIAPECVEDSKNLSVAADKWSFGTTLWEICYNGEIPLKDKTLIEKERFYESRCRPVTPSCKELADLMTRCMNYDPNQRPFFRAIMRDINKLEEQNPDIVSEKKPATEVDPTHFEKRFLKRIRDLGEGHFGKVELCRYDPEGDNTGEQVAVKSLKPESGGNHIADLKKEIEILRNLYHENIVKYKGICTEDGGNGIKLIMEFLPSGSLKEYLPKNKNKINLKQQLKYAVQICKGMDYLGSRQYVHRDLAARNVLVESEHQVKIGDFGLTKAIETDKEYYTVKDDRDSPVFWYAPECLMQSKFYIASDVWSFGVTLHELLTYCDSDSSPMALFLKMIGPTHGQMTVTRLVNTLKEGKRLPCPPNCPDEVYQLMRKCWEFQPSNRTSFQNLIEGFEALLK
Chain of JAK3 (P52333 whole entry): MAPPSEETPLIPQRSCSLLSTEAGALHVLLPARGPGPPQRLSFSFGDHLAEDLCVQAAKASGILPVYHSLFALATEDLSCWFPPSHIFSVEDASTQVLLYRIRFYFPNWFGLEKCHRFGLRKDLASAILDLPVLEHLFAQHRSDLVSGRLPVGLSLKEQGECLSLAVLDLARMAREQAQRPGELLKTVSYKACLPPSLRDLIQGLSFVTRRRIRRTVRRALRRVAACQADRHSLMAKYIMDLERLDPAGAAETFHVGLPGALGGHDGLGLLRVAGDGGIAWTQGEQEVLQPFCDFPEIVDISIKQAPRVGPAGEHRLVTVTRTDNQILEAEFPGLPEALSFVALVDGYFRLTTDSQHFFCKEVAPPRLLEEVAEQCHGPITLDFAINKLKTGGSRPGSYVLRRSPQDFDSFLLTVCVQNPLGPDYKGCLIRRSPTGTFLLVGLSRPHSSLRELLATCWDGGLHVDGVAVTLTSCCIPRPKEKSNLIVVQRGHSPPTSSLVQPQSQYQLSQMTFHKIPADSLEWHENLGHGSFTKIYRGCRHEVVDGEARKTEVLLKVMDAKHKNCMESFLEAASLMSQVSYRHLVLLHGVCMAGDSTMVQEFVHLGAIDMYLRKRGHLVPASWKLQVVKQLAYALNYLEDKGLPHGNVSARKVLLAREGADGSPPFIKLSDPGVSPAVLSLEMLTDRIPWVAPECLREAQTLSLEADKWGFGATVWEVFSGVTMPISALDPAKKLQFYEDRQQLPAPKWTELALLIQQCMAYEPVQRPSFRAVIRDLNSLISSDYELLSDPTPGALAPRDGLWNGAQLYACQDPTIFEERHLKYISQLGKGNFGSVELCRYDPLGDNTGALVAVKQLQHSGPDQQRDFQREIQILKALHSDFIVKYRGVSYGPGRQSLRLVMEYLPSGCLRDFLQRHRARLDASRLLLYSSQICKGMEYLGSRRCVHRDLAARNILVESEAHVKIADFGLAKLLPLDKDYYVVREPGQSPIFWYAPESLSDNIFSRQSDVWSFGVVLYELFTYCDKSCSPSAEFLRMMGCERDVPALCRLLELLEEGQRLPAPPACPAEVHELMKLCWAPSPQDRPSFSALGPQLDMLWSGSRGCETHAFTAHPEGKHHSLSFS

SMILES	JAK 1 (pKi) (JAK1)	JAK 2 (pKi) (JAK2)	Ki (JAK3) [nM]	JAK3 (pKi)-JAK1 (pKi) (JAK3)	Tyk 2 (pKi) (Tyk2)	IC50 [1] [nM]	Caco Kp 10^−6 cm/sec (Caco-2 cell monolayers)	IC50 [2] [nM]	JAK 3 (pKi) (JAK3)	Ki (JAK2; read-out: JAK 2 (pKi) (converted)) [nM]
C=CC(=O)N1CCC(COc2cc(-c3ccc(O)cc3)cn3cncc23)CC1 [Example 2, 1-(4-(((6-(4-hydroxyphenyl)imidazo[1,5-a]pyridin-8-yl)oxy)methyl)piperidin-1-yl)prop-2-en-1-one]	E (E represents a pKi value of 7 or below (Ki of 100 nM or above))	E (E represents a pKi value of 7 or below (Ki of 100 nM or above))	0.1 to 1	A (A represents a value of 3 or above)	E (E represents a pKi value of 7 or below (Ki of 100 nM or above))	200 to 1000	C (C represents a value between 10×10^−6 and 25×10^−6 cm/sec)			
C=CC(=O)N1CC(COc2nc(-c3ccc(O)cc3)cn3cncc23)C1 [Example 6, 1-(3-(((6-(4-hydroxyphenyl)imidazo[1,5-a]pyrazin-8-yl)oxy)methyl)azetidin-1-yl)prop-2-en-1-one]	E (E represents a pKi value of 7 or below (Ki of 100 nM or above))	E (E represents a pKi value of 7 or below (Ki of 100 nM or above))	0.1 to 1	A (A represents a value of 3 or above)	E (E represents a pKi value of 7 or below (Ki of 100 nM or above))	31.6 to 200	B (B represents a value between 5×10^−6 and 10×10^−6 cm/sec)			
C=CC(=O)N1CC(COc2cc(-c3c(F)cc(O)cc3F)cn3cncc23)C1 [Example 7, 1-(3-(((6-(2,6-difluoro-4-hydroxyphenyl)imidazo[1,5-a]pyridin-8-yl)oxy)methyl)azetidin-1-yl)prop-2-en-1-one]	E (E represents a pKi value of 7 or below (Ki of 100 nM or above))	E (E represents a pKi value of 7 or below (Ki of 100 nM or above))	0.1 to 1	A (A represents a value of 3 or above)	E (E represents a pKi value of 7 or below (Ki of 100 nM or above))	31.6 to 200	B (B represents a value between 5×10^−6 and 10×10^−6 cm/sec)	< 1000		
C=CC(=O)N1CC(COc2cc(-c3ccc(O)c(F)c3F)cn3cncc23)C1 [Example 8, 1-(3-(((6-(2,3-difluoro-4-hydroxyphenyl)imidazo[1,5-a]pyridin-8-yl)oxy)methyl)azetidin-1-yl)prop-2-en-1-one]	E (E represents a pKi value of 7 or below (Ki of 100 nM or above))	E (E represents a pKi value of 7 or below (Ki of 100 nM or above))		A (A represents a value of 3 or above)	E (E represents a pKi value of 7 or below (Ki of 100 nM or above))	31.6 to 200	B (B represents a value between 5×10^−6 and 10×10^−6 cm/sec)	< 1000	A (A represents a pKi value≥10 (Ki≤0.1 nM))	
C=CC(=O)N1CCC(Oc2cc(-c3ccc(O)cc3)cn3cncc23)C(F)(F)C1 (stereo not shown) [Example 14, 1-(3,3-difluoro-4-((6-(4-hydroxyphenyl)imidazo[1,5-a]pyridin-8-yl)oxy)piperidin-1-yl)prop-2-en-1-one]	E (E represents a pKi value of 7 or below (Ki of 100 nM or above))			A (A represents a value of 3 or above)	E (E represents a pKi value of 7 or below (Ki of 100 nM or above))	≤ 31.6	B (B represents a value between 5×10^−6 and 10×10^−6 cm/sec)		A (A represents a pKi value≥10 (Ki≤0.1 nM))	10 to 100
C=CC(=O)N1CC(COc2cc(-c3ccc(O)cc3CC)cn3cncc23)C1 [Example 21]	E (E represents a pKi value of 7 or below (Ki of 100 nM or above))	E (E represents a pKi value of 7 or below (Ki of 100 nM or above))	0.1 to 1	A (A represents a value of 3 or above)	E (E represents a pKi value of 7 or below (Ki of 100 nM or above))	31.6 to 200	B (B represents a value between 5×10^−6 and 10×10^−6 cm/sec)			
C=CC(=O)N1CC(COc2cc(-c3cc(Cl)c(O)c(Cl)c3)cn3cncc23)C1 [Example 33]	E (E represents a pKi value of 7 or below (Ki of 100 nM or above))			A (A represents a value of 3 or above)		31.6 to 200	A (A represents a value below 5×10^−6 cm/sec)		A (A represents a pKi value≥10 (Ki≤0.1 nM))	
